Measured values published in patent US6372781B1, “Compounds for treating gastroduodenal diseases” (Pfizer Inc., priority 1994, dated 2002).

Experiments:
Saccharomyces cerevisiae = conditions: against Saccharomyces cerevisiae; cited from earlier work
Aspergillus niger = conditions: against Aspergillus niger; cited from earlier work
Ophiostoma ulmi = conditions: against Ophiostoma ulmi; cited from earlier work
Escherichia coli = conditions: against Escherichia coli; cited from earlier work
Cladosporium cucumerinum = conditions: against Cladosporium cucumerinum; cited from earlier work
Bacillus cereus = conditions: against Bacillus cereus; cited from earlier work
Helicobacter pylori [1] = assay: in vitro screen against Helicobacter pylori (agar dilution / microdilution broth MIC); assay type: cell-based
Botrytis cinerea = conditions: against Botrytis cinerea; cited from earlier work
Bacillus subtilis = conditions: against Bacillus subtilis; cited from earlier work
Helicobacter pylori [2] = conditions: cited from earlier work

For `COc1cc(O)cc2c1C(=O)OC2CCCCCC1CCCC2(CCC(C)O2)O1` (stereo not shown) [spirolaxine], the antifungal activity (Saccharomyces cerevisiae) is listed as “no antifungal activity”, the antifungal activity (Aspergillus niger) is listed as “no antifungal activity” and the antifungal activity (Ophiostoma ulmi) is listed as “no antifungal activity”. The bacteriostatic activity (Escherichia coli) was “weak bacteriostatic activity”, the antifungal activity (Cladosporium cucumerinum) was “no antifungal activity” and the bacteriostatic activity (Bacillus cereus) was “weak bacteriostatic activity”. For the same compound, the “helicobactericidal activity (kills Helicobacter pylori)” value (Helicobacter pylori [1]) was “potent helicobactericidal”, the antifungal activity (Botrytis cinerea) was “no antifungal activity” and the bacteriostatic activity (Bacillus subtilis) was “weak bacteriostatic activity”.
For colloidal bismuth subcitrate, the helicobactericidal activity (Helicobacter pylori [2]) is given as “helicobactericidal”.
